Publication PMC1968247 (British Journal of Cancer, 1993)
Where “and” joins values, the source holds several entries; their conditions need not be identical. Equal values may be shown once. Read-outs that look alike come from different tables or passages of the source.

What was measured:
[1] = system: MAC 15A; test: In vitro chemosensitivity, MTT assay; assay type: cell-based, murine; settings: area under decay curve of the IC50 over the MTT assay
Experimental: (§1) Br. J. Cancer (1993), 67, 441 446 t? […] Bibby Clinical Oncology Unit, University of Bradford, West Yorkshire, BD7 JDP, UK. […] In vivo anti-tumour activity was examined against three transplantable adenocarcinomas of the mouse colon and in vivo bone marrow toxicity was assessed using a spleen colony forming unit assay. The pharmacokinetic behaviour of the drug in vivo and drug stability in vitro was analysed by gas chromatography with electron capture detection. […] Clinical responses to cytotoxic agents have been largely restricted to the haematological malignancies while the majority of human solid tumours have remained refractory to chemotherapy (Marsoni et al., 1987). […] However, their clinical usefulness has been limited by non-selective host toxicity, particularly myelosuppres- sion. The chloroethylnitrosoureas decompose spontaneously in aqueous solution to generate reactive intermediates that are capable of alkylating and carbamoylating nucleophilic targets (Cheng et al., 1972). Alkylation reactions consist of chloroethylations and hydroxyethylations of DNA (Tong et al., 1982). Chloroethylation of 06-guanine with subsequent cross-link formation is considered to be the most important cytotoxic reaction (Lown et al., 1978) while hydroxyethyla- tion reactions are thought to be responsible for their mutagenic and carcinogenic effects (Pelfrene et al., 1976; Swenson et al., 1979). […] In the search for other types of compound that would chloroethylate DNA, a series of 2-haloethylsulphonates was synthesised (Shealy et al., 1983). […] Recently, the NCI has introduced a new disease-orientated screening programme based on the assessment of the in vitro cytotoxicity of a panel of cell lines representing the common clinical forms of human cancers using a colorimetric assay (Boyd, 1989). […] One reason for this discrepancy is that the in vitro tests ignore the potential role played by the pharmacokinetic behaviour and bioavailability of a drug in determining tumour responses in vivo. […] It has been used extensively as part of the pre-clinical evaluation of new anti-cancer agents within the Screening and Pharmacology Group of the EORTC (Bibby et al., 1988b). The feasibility of performing minimal toxicity studies in conjunction with anti-tumour studies has been described (Bibby et al., 1988b). […] Correspondence: A.M. Matthew. Received 6 December 1991; and in revised form 13 October 1992. Br. J. Cancer (1993), 67, 441-446 '?" Macmillan Press Ltd., 1993 442 A.M. MATIHEW et al. ethylating agents with improved therapeutic indices. The assessment of stem cell survival has been recommended to study irreversible cytotoxic bone marrow injury (Schofield, 1986) and this can be performed readily in mice using a spleen colony forming unit assay. […] In vitro activity was assessed against a panel of established murine and human tumour cell lines while in vivo anti-tumour responses were evaluated against an ascitic tumour, MAC 15A, and two solid subcutaneous (sc) tumours, MAC 13 and MAC 26. MAC 13 is relatively nitrosourea-sensitive due to a low level of the repair enzyme 06-alkylguanine-DNA alkyltransferase while MAC 26 is relatively nitrosourea-resistant due to a high repair enzyme level (Lunn et al., 1989). […] Chemosensitivity testing In vitro chemosensitivity was assessed using a modified micro-tetrazolium (MTT) assay (Twenty- man & Luscombe, 1987).

[2] = system: MAC 16; test: In vitro chemosensitivity, MTT assay; assay type: cell-based, murine; settings: area under decay curve of the IC50 over the MTT assay
Experimental: as §1

[3] = system: MAC 26; test: In vitro chemosensitivity, MTT assay; assay type: cell-based, murine
Experimental: as §1

[4] = system: WEHI-3B; test: In vitro chemosensitivity, MTT assay; assay type: cell-based, murine; settings: area under decay curve of the IC50 over the MTT assay
Experimental: as §1

[5] = system: DLD-1; test: In vitro chemosensitivity, MTT assay; assay type: cell-based, human
Experimental: (§2) Br. J. Cancer (1993), 67, 441 446 t? […] Bibby Clinical Oncology Unit, University of Bradford, West Yorkshire, BD7 JDP, UK. […] In vivo anti-tumour activity was examined against three transplantable adenocarcinomas of the mouse colon and in vivo bone marrow toxicity was assessed using a spleen colony forming unit assay. The pharmacokinetic behaviour of the drug in vivo and drug stability in vitro was analysed by gas chromatography with electron capture detection. […] Clinical responses to cytotoxic agents have been largely restricted to the haematological malignancies while the majority of human solid tumours have remained refractory to chemotherapy (Marsoni et al., 1987). […] However, their clinical usefulness has been limited by non-selective host toxicity, particularly myelosuppres- sion. The chloroethylnitrosoureas decompose spontaneously in aqueous solution to generate reactive intermediates that are capable of alkylating and carbamoylating nucleophilic targets (Cheng et al., 1972). Alkylation reactions consist of chloroethylations and hydroxyethylations of DNA (Tong et al., 1982). Chloroethylation of 06-guanine with subsequent cross-link formation is considered to be the most important cytotoxic reaction (Lown et al., 1978) while hydroxyethyla- tion reactions are thought to be responsible for their mutagenic and carcinogenic effects (Pelfrene et al., 1976; Swenson et al., 1979). […] In the search for other types of compound that would chloroethylate DNA, a series of 2-haloethylsulphonates was synthesised (Shealy et al., 1983). […] Recently, the NCI has introduced a new disease-orientated screening programme based on the assessment of the in vitro cytotoxicity of a panel of cell lines representing the common clinical forms of human cancers using a colorimetric assay (Boyd, 1989). […] One reason for this discrepancy is that the in vitro tests ignore the potential role played by the pharmacokinetic behaviour and bioavailability of a drug in determining tumour responses in vivo. […] It has been used extensively as part of the pre-clinical evaluation of new anti-cancer agents within the Screening and Pharmacology Group of the EORTC (Bibby et al., 1988b). The feasibility of performing minimal toxicity studies in conjunction with anti-tumour studies has been described (Bibby et al., 1988b). […] Correspondence: A.M. Matthew. Received 6 December 1991; and in revised form 13 October 1992. Br. J. Cancer (1993), 67, 441-446 '?" Macmillan Press Ltd., 1993 442 A.M. MATIHEW et al. ethylating agents with improved therapeutic indices. The assessment of stem cell survival has been recommended to study irreversible cytotoxic bone marrow injury (Schofield, 1986) and this can be performed readily in mice using a spleen colony forming unit assay. […] In vitro activity was assessed against a panel of established murine and human tumour cell lines while in vivo anti-tumour responses were evaluated against an ascitic tumour, MAC 15A, and two solid subcutaneous (sc) tumours, MAC 13 and MAC 26. MAC 13 is relatively nitrosourea-sensitive due to a low level of the repair enzyme 06-alkylguanine-DNA alkyltransferase while MAC 26 is relatively nitrosourea-resistant due to a high repair enzyme level (Lunn et al., 1989). In vivo bone marrow toxicity and pharmacokinetic studies and in vitro drug stability studies were performed in conjunction with the anti-tumour studies. […] Chlorozotocin was dissolved in 10% dimethylsulphoxide (DMSO)/arachis oil. Drug solutions were prepared at an appropriate concentration for the desired in vivo dose to be administered in 0.1 ml per 10 g body weight by intra- peritoneal (ip) or intravenous (iv) injection and for the desired final concentration in vitro to be achieved upon a 1 in 10 dilution. […] Chemosensitivity testing In vitro chemosensitivity was assessed using a modified micro-tetrazolium (MTT) assay (Twenty- man & Luscombe, 1987).

[6] = system: HCLO; test: In vitro chemosensitivity, MTT assay; assay type: cell-based, human; settings: area under decay curve of the IC50 over the MTT assay
Experimental: as §2

[7] = system: HCT-18; test: In vitro chemosensitivity, MTT assay; assay type: cell-based, human
Experimental: as §2

[8] = system: HRT-18; test: In vitro chemosensitivity, MTT assay; assay type: cell-based, human
Experimental: as §2

[9] = system: HT-29; test: In vitro chemosensitivity, MTT assay; assay type: cell-based, human
Experimental: as §2

[10] = system: K562; test: In vitro chemosensitivity, MTT assay; assay type: cell-based, human; settings: area under decay curve of the IC50 over the MTT assay
Experimental: as §2

[11] = system: MAC 15A ascites tumour; test: Anti-tumour activity against MAC 15A (median survival time); assay type: in vivo, NMRI mice
Experimental: as §2

[12] = system: MAC 13 tumours; test: Anti-tumour activity against MAC 13 (tumour weight); assay type: in vivo, NMRI mice
Experimental: as §2

[13] = system: MAC 26 tumours; settings: for Tumour growth delay: MAC 26; for Survivors: MAC 26 bearers
Experimental: as §2

[14] = system: bone marrow; settings: for Survival fraction: 24 h
Experimental: as §2

[15] = Pharmacokinetic study, plasma Clomesone by gas chromatography; settings: 50 mg kg-1 ip
Experimental: as §2

[16] = In vitro stability in complete RPMI 1640 tissue culture medium; assay type: in vitro ADME; settings: complete RPMI 1640 medium, 37 C, initial 10 ug/ml
Experimental: (§3) Br. J. Cancer (1993), 67, 441 446 t? […] Bibby Clinical Oncology Unit, University of Bradford, West Yorkshire, BD7 JDP, UK. […] In vivo anti-tumour activity was examined against three transplantable adenocarcinomas of the mouse colon and in vivo bone marrow toxicity was assessed using a spleen colony forming unit assay. The pharmacokinetic behaviour of the drug in vivo and drug stability in vitro was analysed by gas chromatography with electron capture detection. […] Clinical responses to cytotoxic agents have been largely restricted to the haematological malignancies while the majority of human solid tumours have remained refractory to chemotherapy (Marsoni et al., 1987). […] However, their clinical usefulness has been limited by non-selective host toxicity, particularly myelosuppres- sion. […] The assessment of stem cell survival has been recommended to study irreversible cytotoxic bone marrow injury (Schofield, 1986) and this can be performed readily in mice using a spleen colony forming unit assay. […] In vitro activity was assessed against a panel of established murine and human tumour cell lines while in vivo anti-tumour responses were evaluated against an ascitic tumour, MAC 15A, and two solid subcutaneous (sc) tumours, MAC 13 and MAC 26. […] Chemosensitivity testing In vitro chemosensitivity was assessed using a modified micro-tetrazolium (MTT) assay (Twenty- man & Luscombe, 1987).

[17] = Maximum tolerated dose, full dose range to the point of toxicity; settings: ip, mice
Experimental: as §3, with “sion. The chloroethylnitrosoureas decompose spontaneously in aqueous solution to generate reactive intermediates that are capable of alkylating and carbamoylating nucleophilic targets (Cheng et al., 1972). Alkylation reactions consist of chloroethylations and hydroxyethylations of DNA (Tong et al., 1982). Chloroethylation of 06-guanine with subsequent cross-link formation is considered to be the most important cytotoxic reaction (Lown et al., 1978) while hydroxyethyla- tion reactions are thought to be responsible for their mutagenic and carcinogenic effects (Pelfrene et al., 1976; Swenson et al., 1979).” for “sion.”

[18] = design: method as in Chan & Barrientos, 1988; settings: previously reported; ref Chan & Barrientos, 1988; cited from earlier work
[19] = system: P388 leukaemia; design: method as in Shealy et al., 1984; settings: ref Shealy et al., 1984; cited from earlier work
[20] = area under decay curve of the IC50 over the MTT assay

For `CS(=O)(=O)CS(=O)(=O)OCCCl` [Clomesone, 2-chloroethyl(methylsulphonyl)methanesulphonate], the “c x t (concentration-time product)” value [1] was 54 fig h ml- ', the “c x t (concentration-time product)” value [2] was 177 fig h ml- ' and the IC50 ([3]; MTT, 4 days, one experiment only) was 35 igm9l-'. For the same molecule, the “c x t (concentration-time product)” value [3, 20] was 185 fig h ml- ', the “c x t (concentration-time product)” value [4] was 150 fig h ml- ' and the IC50 ([5]; MTT, 4 days, n = 4) was over 100 igm9l-'. For the same molecule, the “c x t (concentration-time product)” value [5, 20] was over 528 fig h ml- ', the “c x t (concentration-time product)” value [6] was 146 fig h ml- ' and the IC50 ([7]; MTT, 4 days, n = 4) was over 100 igm9l-'. For the same molecule, the “c x t (concentration-time product)” value [7, 20] was over 528 fig h ml- ', the IC50 ([8]; MTT, 4 days, n = 4) was over 100 igm9l-' and the “c x t (concentration-time product)” value [8, 20] was over 528 fig h ml- '. The IC50 ([9]; MTT, 4 days, n = 4) was over 100 igm9l-', the “c x t (concentration-time product)” value [9, 20] was over 528 fig h ml- ' and the “c x t (concentration-time product)” value [10] was 207 fig h ml- '. For the same molecule, the T/C% ([11]; 12.5 mg kg-1 ip) was 88%, the T/C% ([11]; 12.5 mg kg-1 iv) was 100% and the T/C% ([11]; 25 mg kg-1 ip) was 138%. It also gave a T/C% ([11]; 25 mg kg-1 iv) of 100%, a T/C% ([11]; 50 mg kg-1 ip) of 163% and a T/C% ([11]; 50 mg kg-1 iv) of 125%. The T/C% ([11]; 100 mg kg-1 ip, median survival time treated/control) was 133% and 163%, the “% Tumour weight inhibition” value ([12]; 12.5 mg kg-1 ip) was 21.6% and the “% Tumour weight inhibition” value ([12]; 12.5 mg kg-1 iv) was 45.9%. The “% Tumour weight inhibition” value ([12]; 25 mg kg-1 ip) was 13.5%, the “% Tumour weight inhibition” value ([12]; 25 mg kg-1 iv) was 21.6% and the “% Tumour weight inhibition” value ([12]; 50 mg kg-1 iv) was 47.3%. For the same molecule, the “% Tumour weight inhibition” value ([12]; 100 mg kg-1 ip, assessed 17 days later) was 48.3%, the Tumour growth delay ([13]; 25 mg kg-1 ip) was 0 days and the Tumour growth delay ([13]; 50 mg kg-1 ip) was 0.8 days. For the same molecule, the Tumour growth delay ([13]; 100 mg kg-1 ip) was 0.8 days, the Survivors ([13]; 25 mg kg-1 ip) was 10/10 and the Survivors ([13]; 50 mg kg-1 ip) was 10/10. For the same molecule, the Survivors ([13]; 100 mg kg-1 ip) was 10/10, the Survivors ([13]; 150 mg kg-1 ip) was 0/10 and the Survivors ([13]; 200 mg kg-1 ip) was 0/10. For the same molecule, the Survival fraction ([14]; 25 mg kg-1 ip) was 0.80, the Survival fraction ([14]; 50 mg kg-1 ip) was 0.59 and the Survival fraction ([14]; 100 mg kg-1 ip, colonies observed vs expected) was 0.20 and 0.16. For the same molecule, the “reduction in colony forming units” value ([14]; maximum tolerated dose of 100 mg kg-1 ip) was 5 fold, the “Time to peak plasma levels” value [15] was at most 2 min and the “area under the plasma concentration versus time curve, mean value” [15] was 6.77 .ghmlh'. The “areas under the plasma concentration versus time curves, range” value [15] was 5.70-8.04 lagh ml-', the “Peak plasma levels, mean value” ([15]; female non-tumour bearing mice, three experiments) was 28.0 ggmlh' and the mean terminal half-life ([15]; plasma) was 8.1 min. The “terminal half-life, range” value ([15]; plasma) was 4.8 to 10.8 min, the “Peak plasma levels, range” value ([15]; three experiments) was 18.1-35.9 jigml-' and the “1st order rate constant (k) of degradation” value [16] was 0.205. For the same molecule, the “t1/2 in tissue culture medium” value [16] was 3.38 h, the Maximum tolerated dose [17] was 100 mg kg-' and the “t1/2 in mouse plasma” value [18] was 51 min. The “Activity against P388 leukaemia in vivo (in words)” value [19] was “highly effective”.
